We go through 2 molecules from US20130287890A1, “INHIBITOR OF THE PRODUCTION OF ADVANCED GLYCATION END PRODUCTS” (UENO FINE CHEMICALS INDUSTRY, LTD., priority 2012, published 2013).

One test has as its target T1, human RAGE (Homo sapiens, UniProt Q15109).
T1 construct: human RAGE plasmid (including full-length human RAGE cDNA); expressed in transfected cells; host or cells: C6 glioma cells carrying pNF-κB-Luc plasmid and human RAGE plasmid
Kind of test: RAGE agonist activity of reaction samples (120° C., 60 minutes), NF-κB luciferase assay in C6 glioma cells. It counts as cell-based, rat. The note with it: Test Example 2. How it is done:
Food-derived proteins, carbohydrates and a phosphate buffer solution were charged in a 30 mL glass test tube in each amount shown in Table 6, followed by sealing and stirring, and then the mixture was reacted in an autoclave at 120° C. for 60 minutes. Next, the reactant was fractionated by centrifugation at 3,000 rpm for 3 hours using an ultrafiltration unit (VIVA SPIN 20, manufactured by Sartorius Corporation). The obtained low molecular weight fraction was used as a sample for determination of 3-DG, while the obtained high molecular weight fraction was used as a sample for the determination of fluorescent AGEs, RAGE agonist activity and RAGE antagonist activity. Food-derived proteins and carbohydrates used are as follows:
Using Luciferase Assay System (manufactured by Promega Corporation), evaluation of RAGE agonist activity was performed. (Day 1) According to the methods disclosed in Diabetes, 2006, vol. 55, pp. 2510-2522, C6 glioma cells into which pNF-κB-Luc plasmid (manufactured by Stratagene Corporation) and human RAGE plasmid (including full-length human RAGE cDNA) have been introduced were seeded at 100 μL/well into a 96-well plate and cultured in a CO2 incubator until the cells were confluent. For the culture, 10% FBS/DMEM medium was used. (Day 2) The medium was removed, and after wells were washed with 300 μL of serum-free DMEM medium, 100 μL of 0.1% FBS/DMEM medium was slowly added. Then, the medium was incubated overnight in a CO2 incubator. (Day 3) The sample was diluted using the medium, and 50 μL of the diluted sample was added to each well. AGE-BSA in which AGE was formed with glyceraldehydes (50 μg/mL) was added to a control well. After incubation in a CO2 incubator for 4 hours, the medium was removed and wells were washed 2 times with 300 μL of PBS (−). Then, 25 μL of 1× lysis buffer was added on ice. After the plate was shaken for 15 seconds, 20 μL of lysate was charged in a new white plate. Further 100 μL of a luciferase assay reagent was added, and a […] was measured by a luminometer. Using 5 μL of lysate, quantitative determination of protein was also performed.

The subject of the next test is pentosidine. In words: Quantitative determination of pentosidine (FSK Pentosidine kit) after reaction at 120° C. for 60 minutes. It counts as biochemical. The settings on record: Test Example 1; for Pentosidine: lysine + arginine 0.2 g each, carbohydrate 3.40 g each, 120° C., 60 minutes. On the procedure:
Amino acids, carbohydrates and a phosphate buffer solution were charged in a 30 mL glass test tube in each amount shown in Table 1, followed by sealing and stirring. […] The filtrate thus obtained was used as a sample. The amino acids and carbohydrates used are as follows. Using a pentosidine measurement kit “FSK Pentosidine (registered trademark)” (manufactured by Fushimi Pharmaceutical Co., Ltd.), quantitative determination of pentosidine was performed. Thirty (30) or more minutes before use, reagents and pentosidine solid-phase plates were put to room temperature. After dilution of the sample, a 50 μL aliquot of the sample was dispensed to a pentosidine solid plate attached to the kit, and 50 μL of a first antibody solution was dispensed into wells other than the wells for measurement of reagent blank value. After the sample and the antibody solution were mixed by shaking the plate at 300 rpm for 1 minute, the solution was reacted at 37° C. for 1 hour. Next, the reaction solution was discarded, and 200 μL of rinsing fluid was dispensed to wash the plate. The washing was performed for 3 times. After liquid on the plate was removed, 100 μL of a second antibody solution was dispensed into wells other than the wells for measurement of reagent blank value. After the solution was mixed by shaking the plate at 300 rpm for 1 minute, the solution was reacted at 25° C. for 1 hour. Then, the reaction solution was discarded, and the plate was washed for 3 times with 200 μL of rinsing fluid again. Liquid on the plate was removed, and 100 μL of a color coupler was dispensed and left to stand for 10 minutes under a light shielding condition. Finally, 100 μL of a reaction stop solution was dispensed, and within 10 minutes after the dispensing, measurement was performed at main wavelength 450 nm/reference wavelength 630 nm using a micro-plate reader. The concentration of pentosidine was determined using the calibration curve of a pentosidine standard solution, based on measurement values of the sample.

The mark [1] stands for this setting: gliadin + carbohydrate, protein 0.1 μg/mL, relative to control (AGE-BSA) = 1.
Setting [2] is: lactalbumin + carbohydrate, protein 10 μg/mL, relative to control (AGE-BSA) = 1.
The mark [3] stands for this setting: lactic casein + carbohydrate, protein 1 μg/mL, relative to control (AGE-BSA) = 1.
[4] abbreviates: ovalbumin + carbohydrate, protein 10 μg/mL, relative to control (AGE-BSA) = 1.
Where [5] appears, read: soybean casein + carbohydrate, protein 0.1 μg/mL, relative to control (AGE-BSA) = 1.

T1 sequence (Q15109 23-404): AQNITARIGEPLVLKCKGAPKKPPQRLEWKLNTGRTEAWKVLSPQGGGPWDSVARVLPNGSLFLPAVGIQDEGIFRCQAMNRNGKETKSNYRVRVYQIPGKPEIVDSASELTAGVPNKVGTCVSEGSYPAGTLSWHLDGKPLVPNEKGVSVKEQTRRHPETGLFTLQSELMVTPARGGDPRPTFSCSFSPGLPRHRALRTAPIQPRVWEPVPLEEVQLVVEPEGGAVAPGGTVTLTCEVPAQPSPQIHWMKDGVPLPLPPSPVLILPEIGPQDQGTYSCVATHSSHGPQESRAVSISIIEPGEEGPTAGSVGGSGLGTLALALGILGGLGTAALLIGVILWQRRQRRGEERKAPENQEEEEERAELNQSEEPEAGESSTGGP

On to `OC[C@@H](O)[C@@H](O[C@H]1O[C@H](CO)[C@@H](O)[C@H](O)[C@H]1O)[C@H](O)[C@@H](O)CO` [Maltitol], for which the RAGE agonist activity on human RAGE (setting [1]) is 0.51; on human RAGE (setting [2]), 0.79; on human RAGE (setting [3]), 0.51; at human RAGE (setting [4]) it was 1.42; on human RAGE (setting [5]), 0.24; on human RAGE (test sections 2, 5 and 11 (ovalbumin, lactalbumin, lactic casein) compared with sections 1, 4 and 10 containing sucrose), “decreased”. In the test with pentosidine (amino acids, compared with the test section 1 containing only sucrose), the production of pentosidine result is “decreased”. For the same molecule, the Pentosidine in the test with pentosidine was 3.4 nmol/1 g of amino acid.
Take `OC[C@H]1O[C@@](CO)(O[C@H]2O[C@H](CO)[C@@H](O)[C@H](O)[C@H]2O)[C@@H](O)[C@@H]1O` [Sucrose, reference compound]: the RAGE agonist activity on human RAGE (setting [1]) is 0.53; at human RAGE (setting [2]) it was 0.81; on human RAGE (setting [3]) it was 0.53; at human RAGE (setting [4]), 1.66; at human RAGE (setting [5]), 0.34. In addition, the Pentosidine in the test with pentosidine is 8.4 nmol/1 g of amino acid.
